Reference: US9499553B2 (CHUGAI SEIYAKU KABUSHIKI KAISHA, priority 2013, dated 2016)
Read-outs that look alike come from different tables or passages of the source.

Target: T1, human NaPi-IIb (Homo sapiens, UniProt O95436)
T1 construct: expressed in transfected cells
T1 sequence (O95436 1-690): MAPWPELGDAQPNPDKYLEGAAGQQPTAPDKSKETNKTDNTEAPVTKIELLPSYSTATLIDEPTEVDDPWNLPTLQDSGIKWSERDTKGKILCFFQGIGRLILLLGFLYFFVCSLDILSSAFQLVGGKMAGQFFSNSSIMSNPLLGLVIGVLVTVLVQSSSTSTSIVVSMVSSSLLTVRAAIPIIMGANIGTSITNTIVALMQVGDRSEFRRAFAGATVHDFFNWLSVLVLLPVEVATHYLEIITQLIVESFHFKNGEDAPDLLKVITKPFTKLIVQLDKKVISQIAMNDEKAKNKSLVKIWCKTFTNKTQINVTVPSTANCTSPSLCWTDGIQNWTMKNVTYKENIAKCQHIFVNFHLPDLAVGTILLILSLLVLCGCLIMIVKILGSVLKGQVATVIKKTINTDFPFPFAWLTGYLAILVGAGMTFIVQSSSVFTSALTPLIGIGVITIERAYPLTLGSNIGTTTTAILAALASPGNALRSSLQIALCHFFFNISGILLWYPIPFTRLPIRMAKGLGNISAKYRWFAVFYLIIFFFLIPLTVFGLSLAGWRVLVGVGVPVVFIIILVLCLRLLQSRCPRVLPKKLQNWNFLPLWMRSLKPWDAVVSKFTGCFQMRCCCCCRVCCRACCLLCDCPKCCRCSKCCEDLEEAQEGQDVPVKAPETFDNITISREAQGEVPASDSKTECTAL
Assay: Inhibitory effect on 33PO4 uptake into human NaPi-IIb-expressing CHO cells
Format: cell-based
Procedure: Test Example 2: Inhibitory Effect on PO4 Uptake into Human NaPi-IIb-Expressing Cell CHO cells were transfected with human NaPi-IIb expression plasmids, and a stably human NaPi-IIb-expressing cell line was obtained using G418. The human NaPi-IIb-expressing cells were inoculated to a 96-well plate and incubated overnight in a CO2 incubator. […] After a given time, a 1/20 volume of buffer A containing ^33PO4 was added thereto and reacted at room temperature. After washing with ice-cold buffer A, a liquid scintillator was added to each reaction mixture, and the amount of ^33PO4 uptake was measured using TopCount.

[1] = read-out: IC50 against 33PO4 uptake into human NaPi-IIb-expressing cells

IC50 (read-out: IC50) [µM]	IC50 [1] [µM]	SMILES
18.8	–	CC1(C)C(O)=C(C(=O)Nc2ccc(C(F)(F)F)cc2-c2cc(C(F)(F)F)ncn2)C(=O)N(Cc2cccc(F)c2F)N1c1ccccc1 [Example 299]
–	23.5	CN(CCO)CCOc1ccc(CN2C(=O)C(C(=O)Nc3ccc(C(F)(F)F)cc3-c3cc(C(F)(F)F)ncn3)=C(O)C3(CCCC3)N2C)c(F)c1F [Example 373]
9.4	–	Cc1cc(-c2cc(C(F)(F)F)ccc2NC(=O)C2=C(O)[C@@]3(C)CCCN3N(Cc3cccc(F)c3F)C2=O)cnc1C#N [Example 101]
13.2	–	CN1[C@@H](C(C)(C)C)C(O)=C(C(=O)Nc2cnc(C(F)(F)F)nc2-c2ccc(C(F)(F)F)nc2)C(=O)N1Cc1ccc(OCCN2CCOCC2)c(F)c1F [Example 273]
17	–	Cc1c(C#N)ncnc1-c1cc(Cl)ccc1NC(=O)C1=C(O)[C@H](C(C)(C)C)N(C)N(Cc2ccc(OCCN3CCOCC3)c(F)c2F)C1=O [Example 274]
16.5	–	C[C@]12CCCN1N(Cc1ccc(F)cc1F)C(=O)C(C(=O)Nc1cc(F)c(Br)c(F)c1)=C2O [Example 192]
10.1	–	COc1c(C#N)ncnc1-c1cc(C(F)(F)F)ccc1NC(=O)C1=C(O)[C@@]2(C)CCCN2N(Cc2cccc(F)c2F)C1=O [Example 25]
–	21.4	CN1N(Cc2ccc(OCCN3CCN(CCO)CC3)c(F)c2F)C(=O)C(C(=O)Nc2ccc(C(F)(F)F)cc2-c2cc(C(F)(F)F)ncn2)=C(O)C12CCCC2 [Example 376]
–	19	CN(CCOc1ccc(CN2C(=O)C(C(=O)Nc3ccc(C(F)(F)F)cc3-c3cc(C(F)(F)F)ncn3)=C(O)C3(CCCC3)N2C)c(F)c1F)C1COC1 [Example 412, 7-(2,3-Difluoro-4-(2-(methyl(oxetan-3-yl)amino)ethoxy)benzyl)-10-hydroxy-6-methyl-8-oxo-N-(4-(trifluoromethyl)-2-(6-(trifluoromethyl)pyrimidin-4-yl)phenyl)-6,7-diazaspiro[4.5]dec-9-ene-9-carboxamide]
11.9	–	CC(C)[C@H]1C(O)=C(C(=O)Nc2ccc(C(F)(F)F)cc2-c2ccc(C(F)(F)F)nc2)C(=O)N(Cc2ccc(OCCN3CCOCC3)c(F)c2F)N1C [Example 280]
–	8.7	COCCN1CCN(CCOc2ccc(CN3C(=O)C(C(=O)Nc4ccc(C(F)(F)F)cc4-c4cc(C(F)(F)F)ncn4)=C(O)C4(CCCC4)N3C)c(F)c2F)CC1 [Example 377]
–	15.2	CN1N(Cc2ccc(OCCCOCCO)c(F)c2F)C(=O)C(C(=O)Nc2ccc(C(F)(F)F)cc2-c2cc(C(F)(F)F)ncn2)=C(O)C12CCCC2 [Example 395]
8.5	–	Cc1c(-c2cc(C(F)(F)F)ccc2NC(=O)C2=C(O)C3(CCC3)N(C)N(Cc3ccc(OCCN4CCOCC4)c(F)c3F)C2=O)ncnc1C(F)(F)F [Example 285]
–	28	CN1N(Cc2ccc(OCCN3CCN(S(C)(=O)=O)CC3)c(F)c2F)C(=O)C(C(=O)Nc2ccc(C(F)(F)F)cc2-c2cc(C(F)(F)F)ncn2)=C(O)C12CCC2 [Example 363]
–	7.8	CN1N(Cc2ccc(OCCCCOC[C@H](O)CO)c(F)c2F)C(=O)C(C(=O)Nc2ccc(C(F)(F)F)cc2-c2cc(C(F)(F)F)ncn2)=C(O)C12CCC2 [Example 390]
9.8	–	CN1N(Cc2ccc(C#CCN3CCOCC3)c(F)c2F)C(=O)C(C(=O)Nc2ccc(C(F)(F)F)cc2-c2cc(C(F)(F)F)ncn2)=C(O)C1(C)C [Example 315]
12.5	–	COc1cc(C)c(-c2cc(C(F)(F)F)ccc2NC(=O)C2=C(O)[C@@]3(C)CCCN3N(Cc3cccc(F)c3F)C2=O)cn1 [Example 80]
9.1	–	CSc1ncc(-c2cc(C(F)(F)F)ccc2NC(=O)C2=C(O)[C@@]3(C)CCCN3N(Cc3ccc(C#CCCCCC(=O)O)c(F)c3F)C2=O)cn1 [Example 118, 7-[4-[[(4aR)-4-Hydroxy-4a-methyl-3-[[2-(2-methylsulfanylpyrimidin-5-yl)-4-(trifluoromethyl)phenyl]carbamoyl]-2-oxo-6,7-dihydro-5H-pyrrolo[1,2-b]pyridazin-1-yl]methyl]-2,3-difluorophenyl]hept-6-ynoate]
17.7	–	Cc1c(C#N)ncnc1-c1cc(C(F)(F)F)ccc1NC(=O)C1=C(O)C2(CCC2)N(C)N(Cc2ccc(OCCN3CCOCC3)c(F)c2F)C1=O [Example 283]
–	9.2	CN1N(Cc2ccc(OCCCCCOCCCO)c(F)c2F)C(=O)C(C(=O)Nc2ccc(C(F)(F)F)cc2-c2cc(C(F)(F)F)ncn2)=C(O)C12CCCC2 [Example 400]
11.5	–	C[C@]12CCCN1N(Cc1ccc(OCCN3CCOCC3)c(F)c1F)C(=O)C(C(=O)Nc1ccc(C(F)(F)F)cc1-c1ccc(C(F)(F)F)nc1)=C2O [Example 161]

IC50 (read-out: IC50) [µM]	IC50 [1] [µM]	SMILES
15.8	–	CN1N(Cc2ccc(OCCN3CCOCC3)c(F)c2F)C(=O)C(C(=O)Nc2ccc(Cl)cc2-c2cc(C(F)(F)F)ncn2)=C(O)C12CCCC2 [Example 286]
8.9	–	Cc1c(Cl)ncnc1-c1cc(C(F)(F)F)ccc1NC(=O)C1=C(O)[C@@]2(C)CCCN2N(Cc2cccc(F)c2F)C1=O [Example 69]
4.6	–	Cc1cccc(CN2C(=O)C(C(=O)Nc3cc(F)c(Br)c(F)c3)=C(O)[C@@]3(C)CCCN23)c1F [Example 195]
6.6	–	C[C@]12CCCN1N(Cc1cccc(F)c1F)C(=O)C(C(=O)Nc1ccc(Cl)cc1F)=C2O [Example 76]
9	–	C[C@]12CCCN1N(Cc1cccc([N+](=O)[O-])c1)C(=O)C(C(=O)Nc1ccc(Br)c(F)c1)=C2O [Example 27]
15.7	–	C[C@]12CCCN1N(Cc1cccc(F)c1F)C(=O)C(C(=O)Nc1ccc(C(F)(F)F)cc1-c1cncc(C(F)(F)F)c1)=C2O [Example 91]
–	15.8	CN1N(Cc2ccc(NCCN3CCOCC3)c(F)c2F)C(=O)C(C(=O)Nc2ccc(C(F)(F)F)cc2-c2cc(C(F)(F)F)ncn2)=C(O)C12CCCC2 [Example 447]
12.8	–	COc1cccc(-c2cc(C(F)(F)F)ccc2NC(=O)C2=C(O)[C@@]3(C)CCCN3N(Cc3ccc(OC4CCOCC4)c(F)c3F)C2=O)c1OC [Example 158]
–	6.9	CN1N(Cc2ccc(OCCCCCOC[C@H](O)CO)c(F)c2F)C(=O)C(C(=O)Nc2ccc(C(F)(F)F)cc2-c2ccc(C(F)(F)F)nc2)=C(O)C12CCCC2 [Example 388]
11.1	–	CN1N(Cc2ccc(OCCN3CCOCC3)c(F)c2F)C(=O)C(C(=O)Nc2ccc(C(F)(F)F)cc2-c2ccc(C(F)(F)F)nc2)=C(O)C12CCC2 [Example 282]
26.1	–	C[C@@]12CCCN1N(Cc1ccc(OCCN3CCOCC3)c(F)c1F)C(=O)C(C(=O)Nc1ccc(C(F)(F)F)cc1-c1cc(C(F)(F)F)ncn1)=C2O [Example 108]
–	9.2	COCCN(C)CCN(c1ccc(CN2C(=O)C(C(=O)Nc3ccc(C(F)(F)F)cc3-c3cc(C(F)(F)F)ncn3)=C(O)C3(CCCC3)N2C)c(F)c1F)C(C)C [Example 445]
7.7	–	CCN1[C@@H](C(C)(C)C)C(O)=C(C(=O)Nc2ccc(Cl)cc2-c2ccc(C(F)(F)F)nc2)C(=O)N1Cc1cccc(F)c1F [Example 245]
2.6	–	CN1N(Cc2cccc(F)c2F)C(=O)C(C(=O)Nc2ccc(C(F)(F)F)cc2-c2ccc(C(F)(F)F)nc2)=C(O)C12CCC2 [Example 301]
–	26.1	CN(CCOCCC(=O)NCC(O)CO)CCOc1ccc(CN2C(=O)C(C(=O)Nc3ccc(C(F)(F)F)cc3-c3cc(C(F)(F)F)ncn3)=C(O)C3(CCCC3)N2C)c(F)c1F (stereo not drawn) [Example 426]
16	–	CN1N(Cc2cccc(F)c2F)C(=O)C(C(=O)Nc2ccc(C(F)(F)F)cc2-c2cc(C#N)ncn2)=C(O)C1(C)C [Example 303]
4.7	–	CSc1ccc(-c2cc(C(F)(F)F)ccc2NC(=O)C2=C(O)C(C)(C)N(C)N(Cc3cccc(F)c3F)C2=O)cn1 [Example 310]
–	16.3	CN(CCOc1ccc(CN2C(=O)C(C(=O)Nc3ccc(C(F)(F)F)cc3-c3cc(C(F)(F)F)ncn3)=C(O)C3(CCCC3)N2C)c(F)c1F)C1CCOC1 (stereo not drawn) [Example 366]
–	20	CN(C[C@H](O)[C@@H](O)[C@H](O)[C@H](O)CO)C(=O)CCOCCOCCOCCOc1ccc(CN2C(=O)C(C(=O)Nc3ccc(C(F)(F)F)cc3-c3cc(C(F)(F)F)ncn3)=C(O)C3(CCCC3)N2C)c(F)c1F [Example 423]
2.2	–	C[C@]12CCCN1N(Cc1cc(F)cc(F)c1)C(=O)C(C(=O)Nc1ccc(C(F)(F)F)cc1-c1ccc(C(F)(F)F)nc1)=C2O [Example 171]

SMILES	IC50 (read-out: IC50) [µM]	IC50 [1] [µM]
C[C@]12CCCN1N(Cc1ccc(OCCCCOC[C@H](O)CO)c(F)c1F)C(=O)C(C(=O)Nc1ccc(Cl)cc1-c1ccc(C(F)(F)F)nc1)=C2O [Example 121, (4aR)—N-[4-Chloro-2-[6-(trifluoromethyl)pyridin-3-yl]phenyl]-1-[[4-[4-[(2R)-2,3-dihydroxypropoxy]butoxy]-2,3-difluorophenyl]methyl]-4-hydroxy-4a-methyl-2-oxo-6,7-dihydro-5H-pyrrolo[1,2-b]pyridazine-3-carboxamide]	16	–
